Legend:
Format in all cases: functional
Staphylococcus aureus [1] = experiment: Bactericidal activity against methicillin-resistant Staphylococcus aureus CGMCC1.12409 by CLSI based method
Staphylococcus aureus [2] = experiment: Antibacterial activity against Staphylococcus aureus CGMCC1.8721 in presence of Na+ (reference value: 0.5 ug/ml)
Staphylococcus aureus [3] = experiment: Bactericidal activity against methicillin-resistant Staphylococcus aureus ATCC 43300 by CLSI based method
Staphylococcus aureus [4] = experiment: Antibacterial activity against Staphylococcus aureus CGMCC1.8721 at 37.5 degreeC (reference value: 0.5 ug/ml)
Staphylococcus aureus [5] = experiment: Antibacterial activity against methicillin-resistant Staphylococcus aureus CGMCC1.12409 at pH 8 (reference value: 0.5 ug/ml)

Which results are given for `COc1ccc2[nH]c3c(CC[C@H](C)[C@H]4CC[C@H]5[C@@H]6[C@H](O)C[C@@H]7C[C@H](O)CC[C@]7(C)[C@H]6C[C@H](O)[C@]45C)[n+](Cc4ccc(Cl)cc4)ccc3c2c1.[Br-]`?
MBC (Staphylococcus aureus [1]): 1 µg/mL; MIC (Staphylococcus aureus [2]): 0.5 µg/mL; MBC (Staphylococcus aureus [3]): 1 µg/mL; MIC (Staphylococcus aureus [4]): 0.5 µg/mL; MIC (Staphylococcus aureus [5]): 1 µg/mL
